Assay results taken from US12311136B2, “Using alternating electric fields to increase permeability of the blood brain barrier” (Novocure GmbH, priority 2020, dated 2025).
One block for each molecule: values may come before it.

Experiments:
Format in all cases: in vivo
rat brain (BBB) [1] = experiment: Evans Blue (EB) accumulation in rat brain after alternating electric fields
From the text: A set of in vivo experiments on rats was also run to quantify the increase in vessel permeability caused by exposure to the alternating electric fields. These experiments used Evans Blue (EB) dye, which is an azo dye that has a very high affinity for serum albumin (molecule size ˜69 kDa). Because of its large molecule size, serum albumin will ordinarily not be able to get past the BBB.
This was accomplished by shaving each rat's head, positioning a first pair of capacitively coupled electrodes on the top and bottom of the rat's head, and positioning a second pair of capacitively coupled electrodes on the left and right sides of the rat's head. A 100 kHz AC voltage was then applied between the top and bottom electrodes for 1 second, followed by a 100 kHz AC voltage applied between the right and left electrodes for 1 second, in a repeating sequence.
Under the conditions indicated in Table 1 and for the times indicated on Table 1, EB was injected intravenously into the tail vein under anesthesia (Once injected, EB immediately binds to Albumin), and the EB was allowed to circulate for 2 hours in all cases. The following steps were then performed: (a) intracardiac perfusion with saline; (b) brains are sliced in four pieces with a brain slicer; (c) pieces were photographed to localize staining and weighted; (d) EB extraction after tissue homogenization with TCA 50% (1:3) and centrifuge and (e) EB quantification at 610 nm. Results are given as μg EB per g tissue.
During the experiment, two animals from group 2 and one animal from group 4 were excluded (disrupted treatment, failure to inject EB into the tail vein). There were no differences between the animals treated with alternating electric fields (groups 1 and 2) and therefore these animals were grouped together. Similarly, there were no differences between sham heat and control animals (groups 3 and 4) and therefore these animals were grouped together.
EB accumulation in these four specific sections was then measured. In addition, a computer simulation was performed to determine the field strength in each of these four sections. […]

GBM F98 cells [2] = experiment: Paclitaxel plus alternating electric fields in rat GBM, fold increase of tumor volume; conditions: 15 mg/kg PTX with 100 kHz fields, day 15, vs heat only
Protocol: (§1) Another set of in vivo experiments was performed to determine whether paclitaxel (PTX, which is a drug that ordinarily cannot traverse the BBB) can make it across the BBB when the subject is treated with alternating electric fields. In one of these experiments, glioblastoma was induced in rats by injecting them orthotopically with GBM F98 cells on day 0 of the experiment. On day 6, a first set of MRI scans of each rat's brains was obtained. Alternating electric fields at 100 kHz were applied to all the rats on days 7 through 10. On day 10 (i.e., after applying the fields for 72 hours), some of the rats were injected i.p. with 25 mg/kg PTX, while other rats were not injected. Subsequently, on day 13 (i.e., 3 days post PTX administration), a second set of MRI scans of each rat's brain was obtained. Ki67 (red) and DAPI (blue) staining was evaluated for the test and control rats.
A similar experiment using a 15 mg/kg dose of PTX was performed, except that instead of quantifying the Ki67/DAPI ratio on day 13, MRI scans and post mortem tissue sections were used to determine the fold increase of the tumor volume on day 15. The tumor volumes from these experiments are depicted in FIG. 11. […] And the inventors have concluded that the alternating electric fields allow the PTX (or metabolites thereof) to cross the BBB.

GBM F98 cells [3] = experiment: Paclitaxel plus alternating electric fields in rat GBM, Ki67/DAPI cell proliferation; conditions: 25 mg/kg PTX i.p. after 72 hours 100 kHz fields; day 13; vs alternating electric fields only
Protocol: as §1

rat brain (BBB) [4] = experiment: DCE-MRI of Gadolinium contrast agent accumulation in rat brain; conditions: for contrast agent accumulation in the brain tissue, injection 96 h after the fields were turned off: 72 hours fields followed by 96 hours without fields vs control+96 h
Protocol: Yet another set of in vivo experiments was performed using Dynamic Contrast Enhanced MRI (DCE-MRI) with intravenous injection of Gadolinium contrast agent (Gd-DTPA, Magnetol, MW 547). In these experiments, test rats were treated with 100 kHz alternating electric fields for 72 h, and control rats were not treated with alternating electric fields for the same period of time. After this 72 h period, the alternating electric field was turned off, the rats were anesthetized, and a series of 60 T1w MRI scans (each of the scans having a duration of 28 seconds) was acquired. The gadolinium contrast agent was injected into the rat's tail vein during the 7th of these 60 scans.
The image analysis for each rat included (1) determining a baseline for each voxel by calculating the mean of the first six T1w MM scans for each voxel (i.e., the scans prior to the injection of the gadolinium); (2) computing voxel by voxel, the percent signal change (i.e., gadolinium accumulation) over time relative to the baseline; (3) segmenting the brain into anterior, middle, and posterior segments; (4) generating for each of the three segments the mean percent signal change with respect to the baseline over all the voxels in the respective segment and then (5) averaging 4 consecutive time points (i.e. 4 scans) together. Finally, the data from all of the rats within any given group were averaged together.
To test whether this increase in permeability of the BBB was temporary, the same test conditions were repeated, but followed with an additional 96 hours without alternating electric fields. After this 96 hour period, a series of 60 T1w MRI scans (each of the scans having a duration of 28 seconds) was acquired using the same procedure described above (including the gadolinium injection). The results of this portion of the DCE-MRI experiment for each of the three segments of the brain are also depicted in FIG. 8. […] From this we can conclude that the permeability of the BBB returns to normal after the alternating electric fields are discontinued.
The relationship between the intensity of the alternating electric fields and the impact of those fields on BBB integrity and permeability was also apparent from in vivo experiments in rats using serial dynamic contrast-enhanced (DCE) MM to measure gadolinium (Gd) uptake after 100 kHz alternating electric fields were applied for 72 hours. The rat's brains were segmented into three regions (anterior, posterior, and middle), and simulations of the alternating electric fields delivery to those three regions yielded field strengths of 1.5±0.6 V/cm RMS, 2.1±1.2 V/cm RMS, and 2.7±1.7 V/cm RMS respectively. […] These findings also indicate that the cells' response to alternating electric fields depends on the intensity of the fields.

average EB accumulation in the rat brain, averaged over all four sections 1-4 (rat brain (BBB) [1]; 100 kHz fields 72 hours vs sham heat/control, p<0.05): higher accumulation of EB
EB accumulation, brain sections 1, 2 (frontal cerebrum) (rat brain (BBB) [1]; 100 kHz fields 72 h vs sham heat/control, EB i.v., circulating 2 hours, field strength highest): statistically significant increase
SMILES: Cc1cc(-c2ccc(/N=N/c3ccc4c(S(=O)(=O)O)cc(S(=O)(=O)O)c(N)c4c3O)c(C)c2)ccc1/N=N/c1ccc2c(S(=O)(=O)O)cc(S(=O)(=O)O)c(N)c2c1O [EB, Evans Blue]
EB accumulation, posterior brain sections (3, 4) (rat brain (BBB) [1]; 100 kHz fields 72 h vs sham heat/control, EB i.v., circulating 2 hours, field strength lower): smaller increase (that was not statistically significant)

SMILES: CC(=O)O[C@H]1C(=O)[C@@]2(C)[C@H]([C@H](OC(=O)c3ccccc3)[C@]3(O)C[C@H](OC(=O)[C@H](O)[C@@H](NC(=O)c4ccccc4)c4ccccc4)C(C)=C1C3(C)C)[C@]1(OC(C)=O)CO[C@@H]1C[C@@H]2O [PTX, paclitaxel]
fold tumor volume increase in the GBM tumor (GBM F98 cells [2]): significant decrease in the fold tumor volume increase
cell proliferation in the GBM tumor (Ki67/DAPI ratio) (GBM F98 cells [3]): significant decrease in cell proliferation

SMILES: O=C([O-])CN(CCN(CC(=O)[O-])CC(=O)O)CCN(CC(=O)[O-])CC(=O)O.[Gd+3] [Gd-DTPA]
Gd signal enhancement in the middle and posterior brain (rat brain (BBB) [4]; 100 kHz fields 72 hours, about 10 minutes after Gd injection, vs control rats): significantly increased signal enhancement
Gd accumulation in the anterior part of the brain (rat brain (BBB) [4]; 100 kHz fields 72 hours, lower field intensities in this region): no significant Gd accumulation
contrast agent accumulation in the brain tissue (DCE-MRI percent signal change) (rat brain (BBB) [4]; 100 kHz fields 72 h vs control rats, anterior, middle, posterior segments): significantly higher than in the control rats
contrast agent accumulation in the brain tissue, injection 96 h after the fields were turned off (rat brain (BBB) [4]; listed as Gd): no significant accumulation of Gd
contrast agent accumulation in the brain tissue, injection 96 h after the fields were turned off (rat brain (BBB) [4]; listed as contrast agent): not significantly different from the control rats
Gd accumulation in control rats (rat brain (BBB) [4]; rats not treated using alternating electric fields): No significant Gd accumulation
spatial distribution of Gd enhancement (rat brain (BBB) [4]; test rats (100 kHz fields 72 h), 20 to 23 minutes post-contrast administration): distributed in the whole brain
